{"source": "PubChem BioAssay AID602215", "about": "(Sanford-Burnham Center for Chemical Genomics, 2012)", "note": "pIC50: −log10 of the molar value. Active and inactive are the calls of the source.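 The calls were made as follows: active = IC50 of 20 µM or lower; inactive = the rest.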", "data": [{"system": "HL-1 cardiomyocytes, H2O2 injury, ATP luminescence, 2 h", "experiment": "protection of HL-1 cardiomyocytes from peroxide injury, dose response, cell-based, ATP luminescence (AID 602215);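 also: potency is for protection so actives raise ATP signal against peroxide damage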", "values": [{"smiles": "COc1cc(-c2cc(NC(C)=O)c3ncc(-c4cc(OC)c(OC)c(OC)c4)n3c2)cc(OC)c1OC", "pIC50": 5.83}, {"smiles": "Cc1[nH]c2ccccc2c1/C=N/NC(=O)c1cc(-c2cccs2)[nH]n1", "IC50": "> 79 µM (inactive)"}, {"smiles": "CC(OC(=O)c1cc(-c2cccnc2)nc2ccccc12)C(=O)Nc1ccc2ccccc2c1", "note": "(stereo not drawn)", "IC50": "> 79 µM (inactive)"}, {"smiles": "CC(=O)c1ccc(-c2cnc3c(NC=O)cc(-c4cccc(NS(C)(=O)=O)c4)cn23)cc1", "pIC50": 4.89}, {"smiles": "C[C@@H]1CN([C@@H](C)CO)C(=O)c2cc(NC(=O)Nc3ccccc3)ccc2O[C@H]1CN(C)C(=O)Nc1cccc2ccccc12", "IC50": "> 79 µM (inactive)"}, {"smiles": "O=C(c1cc(=O)[nH]c2ccccc12)N1CCN(S(=O)(=O)c2ccc(Cl)cc2)CC1", "IC50": "> 79 µM (inactive)"}, {"smiles": "CC1(c2ccccc2)NC(=O)N(CC(=O)Nc2cccc(/C=C/c3ccccn3)c2)C1=O", "note": "(stereo not drawn)", "pIC50": 4.85}, {"smiles": "COc1cc(C(=O)Nc2nc(-c3cccs3)cs2)cc(OC)c1OC", "IC50": "> 79 µM (inactive)"}, {"smiles": "COc1cccc(Nc2nc(-c3sc(NC(=O)c4ccco4)nc3C)cs2)c1", "IC50": "26.4 µM (inactive)"}, {"smiles": "NC(=O)COc1ccc2oc(=O)cc(-c3cc4ccccc4o3)c2c1", "pIC50": 4.74}, {"smiles": "COc1cc(/C=C/c2nnc3c4ccccc4ncn23)cc(OC)c1OC", "pIC50": 4.86}, {"smiles": "COc1cc(NC(=O)c2cc3nc(-c4ccccc4)cc(-c4ccccc4)n3n2)cc(OC)c1OC", "pIC50": 5.06}, {"smiles": "COc1cc(/C=C(\\C#N)c2nc3ccc(C)cc3[nH]2)c([N+](=O)[O-])cc1OC", "IC50": "> 79 µM (inactive)"}, {"smiles": "O=C(Nc1cccc(NC(=O)c2ccc([N+](=O)[O-])o2)c1)c1ccco1", "IC50": "> 79 µM (inactive)"}, {"smiles": "COCCCN(Cc1ccco1)C(=O)Cn1ncc2c([nH]c3ccccc32)c1=O", "IC50": "> 79 µM (inactive)"}, {"smiles": "Cc1cccc(NC(=O)c2oc3ccc(S(=O)(=O)N4CCOCC4)cc3c2C)c1C", "pIC50": 5.38}, {"smiles": "CC(C)=NNc1cnnc2ccc([N+](=O)[O-])cc12", "IC50": "> 79 µM (inactive)"}, {"smiles": "COc1cc(-c2cc(C(=O)OCC(=O)NC3CC3)c3ccccc3n2)cc(OC)c1OC", "pIC50": 4.90}, {"smiles": "O=C(CNC(=O)c1nc[nH]c1C(=O)NCC(=O)OCc1ccccc1)OCc1ccccc1", "IC50": "> 79 µM (inactive)"}, {"smiles": "CC(=O)c1ccc(-c2ccc(C(=O)Nc3nc(-c4ccccn4)cs3)o2)cc1", "IC50": "> 79 µM (inactive)"}, {"smiles": "Cn1c(=O)c2[nH]c(NN=Cc3cccc(Br)c3)nc2n(C)c1=O", "IC50": "> 79 µM (inactive)"}, {"smiles": "C=CC[C@@H](CC(=O)NCCO)C(=O)NC[C@H](OC(=O)[C@@H](CC=C)Cc1ccc(F)cc1)c1ccccc1", "IC50": "> 79 µM (inactive)"}, {"smiles": "COc1cccc(CN(C)C(=O)C(Cc2ccccc2)NC(=O)c2ccccc2)c1OC", "note": "(stereo not drawn)", "IC50": "> 79 µM (inactive)"}, {"smiles": "COc1ccc(C(=O)O/N=C(/c2ccccc2)c2ccncc2)cc1OC", "IC50": "> 79 µM (inactive)"}, {"smiles": "COc1ccc(-c2ccc3c(c2)S(=O)(=O)c2cccc(C(=O)N4CCN(c5c(Cl)cncc5Cl)CC4)c2C3=O)cc1OC", "IC50": "> 79 µM (inactive)"}, {"smiles": "CC(C)(C)OC(=O)N1CCC(NC(=O)c2nc[nH]c2C(=O)NCC(=O)OCc2ccccc2)CC1", "IC50": "> 79 µM (inactive)"}, {"smiles": "N#C/C(=C\\Nc1ccc2c(c1)OCCO2)c1nc2ccccc2[nH]1", "IC50": "> 79 µM (inactive)"}, {"smiles": "Cc1ccc(NC(=O)c2nc[nH]c2C(=O)NCCCNC(=O)c2[nH]cnc2C(=O)Nc2ccc(C)cc2)cc1", "IC50": "> 79 µM (inactive)"}, {"smiles": "CCOC(=O)c1c(C)[nH]c(C)c1C(=O)COc1ncnc2cc([N+](=O)[O-])ccc12", "IC50": "> 79 µM (inactive)"}, {"smiles": "COc1cc(-c2cc(NC(C)=O)c3ncc(-c4ccc(F)cc4)n3c2)cc(OC)c1OC", "IC50": "> 79 µM (inactive)"}, {"smiles": "O=CNc1cc(-c2ccc(C(=O)NC3CC3)cc2)cn2c(-c3ccccc3)cnc12", "IC50": "> 79 µM (inactive)"}, {"smiles": "CN(C(=O)c1sc2nc(N3CCOCC3)c3c(c2c1N)CCCC3)c1ccccc1", "pIC50": 5.06}, {"smiles": "Brc1cc2c(cc1/C=N/Nc1nc(N3CCCC3)nc(N3CCOCC3)n1)OCO2", "pIC50": 4.96}, {"smiles": "COc1cc(-c2cc(C(=O)NCc3ccco3)c3ccccc3n2)cc(OC)c1OC", "IC50": "23.5 µM (inactive)"}, {"smiles": "CC(C)(C)NC(=O)c1cc(NC(=O)c2cccs2)cc(NC(=O)c2cccs2)c1", "IC50": "> 79 µM (inactive)"}, {"smiles": "CCn1c(O)c(/C=N/N=C/c2ccccc2)c2ccc(C3=NNC(=O)CC3)cc21", "IC50": "> 79 µM (inactive)"}, {"smiles": "COc1cc(OC)cc(-c2cc3nc(C)c(CCC(=O)Nc4nc(C)cs4)c(C)n3n2)c1", "IC50": "> 79 µM (inactive)"}, {"smiles": "COc1ccc(C(=O)Nc2cccc(/C(C)=N/NC(=O)c3ccc([N+](=O)[O-])c(C)c3)c2)cc1OC", "IC50": "> 79 µM (inactive)"}]}]}
